Legend:
[1] = system: THP-1 differentiated macrophages; assay: Brefeldin A effect on intranuclear accumulation of quantum dots; assay type: cell-based, human; details: Brefeldin A 20 μg/ml for 30 min, washed out before particles were added
Description: In the studies referred to in FIGS. 1-10, Human THP-1 monocytes, the transformed epithelial cell lines HT-29, HCT-116 and T cell lymphoma cell line HUT-78 were obtained from the European Collection of Animal Cell Cultures (ECACC, Salisbury, UK). Cells were grown in RPMI 1640 medium supplemented with 10% heat-inactivated fetal bovine serum (FBS), 2 mM L-glutamine/L, 100 μg penicillin/ml and […], and incubated at 37° C. in 5% CO2. To induce monocyte to macrophage differentiation, THP-1 cells were cultured in the presence of 100 ng/ml PMA for 72 h.
Prior to incubation with CdTe particles THP-1 differentiated macrophages were incubated with the Golgi complex disrupter Brefeldin A for 30 min at 20 μg/ml. Following a wash out, green 2.2 nm size CdTe particles were added to the cells.

[2] = system: human primary macrophage cells; assay: Thapsigargin effect on intranuclear accumulation of quantum dots; assay type: cell-based; details: thapsigargin 100 mM for 30 min, washed out before incubation with particles
Description: Nuclear import inhibitor thapsigargin ([…]) was added to the cells for 30 min and subsequently washed out with pre-warmed culture medium prior to incubation with 2.2 nm size (green emitting) CdTe particles.

Row | SMILES | effect on distribution and intranuclear accumulation of 2.2 nm green CdTe particles [1] | effect on intranuclear accumulation of 2.2 nm green CdTe particles [2]
1 | C[C@H]1CCC/C=C/[C@@H]2C[C@H](O)C[C@H]2[C@H](O)/C=C/C(=O)O1 [brefeldin A, Brefeldin A] | dispersion of quantum dots and partial block of intranuclear accumulation | –
2 | C/C=C(/C)C(=O)O[C@H]1C(C)=C2[C@H]([C@@H]1OC(=O)CCCCCCC)[C@@](C)(OC(C)=O)C[C@H](OC(=O)CCC)[C@@]1(O)[C@H]2OC(=O)[C@@]1(C)O [thapsigargin] | – | blockade of intranuclear accumulation

Source: patent publication US20080063720A1, “Delivery System” (priority 2004, published 2008)
